The text below walks through data of patent US12090195B2 (priority 2018, dated 2024).

Series [1] deals with six microorganisms (bacteria, yeast, fungus). It is filed as cell-based.
Series [2] has as its system mice. The conditions noted are these: mouse, in vivo, ip; cited from earlier work.

SMILES strings stand for the structures.

`OCCOc1ccccc1` [Combination 2-PE, 2-Phenoxyethanol]: in series [1], the “antimicrobial activity against yeast and fungi” value is “weaker antimicrobial activity than Thiomersal”. For `COC(=O)c1ccc(O)cc1` [methyl paraben], in series [2], the LD50 was 1000 mg/kg.
